According to patent US7291492B2, “Histone deacetylase 9” (The Institute of Cancer Research, priority 2001, dated 2007):

System: GAL4 DBD-HDAC9 fusions
Conditions: 293T cells, GAL4-TK-Luc reporter; HDAC9, HDAC9ΔCD and HDAC9CD fusions
Method: GAL4-Tk-Luc was transiently transfected into 293T cells together with 100 ng GAL4 DBD fusions. All Results were performed in duplicate […].
It has been previously established that HDACs repress transcription when tethered to DNA as Gal4 fusion proteins. […] A GAL4^uasx5-TK-Luciferase reporter gene was transiently transfected into 293T cells together with the expression vectors for the indicated GAL4 fusion proteins.

Trichostatin A
effect on the repressive effects of GAL4 DBD-HDAC9 fusions (reporter activity): partially relieved
